Source: US5128346A, “Derivatives of D-glutamic acid and D-aspartic acid” (priority 1990, dated 1992)
Like-named read-outs stand apart in the source and are kept apart here.

How the values were obtained:
Type-A CCK receptor = target: T1, Type-A CCK receptor (Cavia porcellus, UniProt Q63931); assay: Radioligand binding, [^125 I]-BH-CCK8, Type-A CCK receptor (pancreatic membranes); design: species or system guinea pig
T1 construct: cortex and pancreas were removed and rinsed with ice cold saline; from tissue; host or cells: guinea pig pancreas, membranes
T1 sequence (Q63931 1-430): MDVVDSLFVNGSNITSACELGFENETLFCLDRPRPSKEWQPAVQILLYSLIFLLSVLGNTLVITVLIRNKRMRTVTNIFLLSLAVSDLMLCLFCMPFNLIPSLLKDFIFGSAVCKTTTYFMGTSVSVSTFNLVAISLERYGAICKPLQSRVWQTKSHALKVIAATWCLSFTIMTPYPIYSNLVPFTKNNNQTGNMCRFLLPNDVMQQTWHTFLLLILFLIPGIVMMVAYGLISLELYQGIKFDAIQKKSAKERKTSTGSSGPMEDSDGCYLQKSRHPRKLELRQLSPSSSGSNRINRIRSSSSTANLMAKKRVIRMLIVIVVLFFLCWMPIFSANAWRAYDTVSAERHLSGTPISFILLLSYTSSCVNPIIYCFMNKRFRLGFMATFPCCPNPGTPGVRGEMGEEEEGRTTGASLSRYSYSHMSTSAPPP
Source text: (§1) CCK8 [Asp-Tyr(SO3 H)-Met-Gly-Trp-Met-Asp-Phe-NH2 ] was purchased from Beckman Instruments (Palo Alto, Ca/) and Peptide International (Louisville, Ky.). Chymostatin, L-Try-Gly, puromycin, bestatin, EGTA, HEPES and BSA were purchased from Sigma Chemical Co. (St. Louis, Mo.). [^125 I]BH-CCK8 (specific activity, 2200 Ci/mmol) and Aquasol 2 scintillation cocktail were obtained from New England Nuclear (Boston, Ma.). Male guinea pigs, 250 to 325 g, were obtained from Scientific Small Animal Laboratory and Farm (Arlington Heights, Ill.). Collagenase, 300 units per mg, was purchased from Worthington (Frehold, N.J.)
(§2) 1. Guinea Pig Cerebral Cortical and Pancreatic Membrane Preparations
(§3) Cortical and pancreatic membrances were prepared as described (Lin and Miller; J. Pharmacol. Exp. Ther. 232, 775-780, 1985). In brief, cortex and pancreas were removed and rinsed with ice cold saline. Visible fat and connective tissues were removed from the pancreas. Tissues were weighed and homogenized separately in approximately 25 mL of ice-cold 50 mM Tris-HCl buffer, pH 7.4 at 4° C., with a Brinkman Polytron for 30 sec, setting 7. The homogenates were centrifuged for 10 min at 1075×g and pellets were discarded. The supernatants were saved and centrifuged at 38,730×g for 20 min. The resultant pellets were rehomogenized in 25 mL of 50 mM Tris-HCl buffer with a Teflon-glass homogenizer, 5 up and down strokes. The homogenates were centrifuged again at 38,730×g for 20 min. Pellets were then resuspended in 20 mM HEPES, containing 1 mM EGTA., 118 mM NaCl, 5 mM MgCl2, 100 microM bestatin, 3 microM phosphoramidon, pH 7.4 at 22° C., with a Teflon-glass homogenizer, 15 up and down strokes. Resuspension volume for the cortex was 15-18 mL per gm of original wet weight and 60 mL per gm for the pancreas.
(§4) ^125 I]Bolton-Hunter CCK8, and test compounds were diluted with HEPES-EGTA-salt buffer (see above) containing 0.5% bovine serum albumin (BSA). To 1 mL Skatron polystyrene tubes were added 25 microliters of test compounds, 25 miroliters of [^125 I]BH-CCK8, and 200 microliters of membrane suspension. The final BSA concentration was 0.1%. The cortical tissues were incubated at 30° C. for 150 min and pancreatic tissues were incubated at 37° C. for 30 min. Incubations were terminated by filtration using Skatron Cell Harvester and SS32 microfiber filter mats. The specific binding of [^125 I]BH-CCK8, defined as the difference between binding in the absence and presence of 1 microM CCK8, was 85 90% of pancreas. IC50 's were determined from the Hill analysis.

Type-B CCK receptor = target: T2, Type-B CCK receptor (Cavia porcellus, UniProt H0VZC5); assay: Radioligand binding, [^125 I]-BH-CCK8, Type-B CCK receptor (cerebral cortical membranes); design: species or system guinea pig
T2 construct: cortex and pancreas were removed and rinsed with ice cold saline; from tissue; host or cells: guinea pig cerebral cortex, membranes
T2 sequence (H0VZC5 1-426): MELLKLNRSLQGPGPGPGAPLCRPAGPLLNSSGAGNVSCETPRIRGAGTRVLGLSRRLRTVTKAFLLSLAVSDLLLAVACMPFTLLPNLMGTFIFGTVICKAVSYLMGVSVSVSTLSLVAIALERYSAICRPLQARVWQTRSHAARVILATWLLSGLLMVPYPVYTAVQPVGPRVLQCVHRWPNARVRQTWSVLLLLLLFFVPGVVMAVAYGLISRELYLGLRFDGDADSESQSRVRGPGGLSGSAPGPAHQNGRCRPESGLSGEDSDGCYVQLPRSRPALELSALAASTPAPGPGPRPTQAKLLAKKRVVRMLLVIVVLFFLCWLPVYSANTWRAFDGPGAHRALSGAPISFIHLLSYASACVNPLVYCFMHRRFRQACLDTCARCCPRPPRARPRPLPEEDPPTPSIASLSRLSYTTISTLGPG
Source text: as §1, §2, §3
as §4, with “The specific binding of [^125 I]BH-CCK8, defined as the difference between binding in the absence and presence of 1 microM CCK8, was 85 90% of pancreas.” left out

[1] = guinea pig cerebral cortical membranes, 30° C., 150 min, IC50 from Hill analysis

| SMILES | IC50 (Type-A CCK receptor) [nM] | IC50 (Type-B CCK receptor) [nM] | IC50, [^125 I]-BH-CCK, Type-B CCK Receptor (Type-B CCK receptor; [1]) | IC50 (Type-A CCK receptor; guinea pig pancreatic membranes, 37° C., 30 min, IC50 from Hill analysis) [nM] | IC50 (Type-B CCK receptor; [1]) [nM] |
| --- | --- | --- | --- | --- | --- |
| CCCCCN(CCCCC)C(=O)[C@@H](CCC(=O)O)NC(=O)C1CNc2ccccc2N1 (stereo partly drawn) [Example 13, N-(1',2',3',4'-Tetrahydroquinoxalyl-2'-carbonyl)-R-Glu-N^α,N^α -di-n-pentylamide] | 92 | 5600 | – | – | – |
| CCCCCN(CCCCC)C(=O)[C@@H](CCC(N)=O)NC(=O)c1cc2ccccc2[nH]1 [Example 22, N-(2'-Indolylcarbonyl)-R-Gln-N^α,N^α -di-n-pentylamide] | 97 | 6660 | – | – | – |
| CCOC(=O)CN(Cc1ccccc1)C(=O)[C@@H](CCC(=O)OCc1ccccc1)NC(=O)c1cnc2ccccc2c1 [Example 82, Ethyl N-(3,-Quinolylcarbonyl)-(γ-benzylester)-R-Glutamyl (N-benzyl)glycinate] | 250 | 10000 | – | – | – |
| CCCCCN(CCCCC)C(=O)[C@@H](CCC(=O)O)NC(=O)c1cc2ccccc2n1C [Example 60, N-(N^i -Methyl-2,-Indolylcarbonyl)-R-Glu-N^α,N^α -dipentylamide] | 34 | – | 1-10,000 nM | – | – |
| O=C(CC[C@@H](NC(=O)c1cnc2ccccc2c1)C(=O)NCc1ccccc1)OCc1ccccc1 [Example 25, N-(3'-Quinolylcarbonyl)-(γ-benzyl ester)-R-Glu-benzylamide] | 310 | > 10000 | – | – | – |
| COC(=O)[C@@H](NC(=O)[C@@H](CCC(=O)O)NC(=O)c1cc2ccccc2[nH]1)c1ccccc1 [Example 37, Methyl N-(2'-Indolylcarbonyl)-R-Glutamyl-S-phenylglycinate] | 49 | – | 1-10,000 nM | – | – |
| COC(=O)[C@@H](NC(=O)[C@@H](CCC(=O)OCc1ccccc1)NC(=O)c1cc2ccccc2[nH]1)c1ccccc1 [Example 36, Methyl N-(2'-Indolylcarbonyl)-(γ-benzylester)-R-Glutamyl-S-phenylglycinate] | 200 | 6300 | – | – | – |
| O=C(O)CC[C@@H](NC(=O)c1cc2ccccc2[nH]1)C(=O)NC12CC3CC(CC(C3)C1)C2 [Example 54, N-(2'-Indolylcarbonyl)-R-Glu-N^α -(1,-adamantyl)amide] | 660 | > 10000 | – | – | – |
| CCCCCN(CCCCC)C(=O)[C@@H](CCC(=O)O)NC(=O)c1cnc2ccccc2n1 [Example 10, N-(2'-Quinoxalylcarbonyl)-R-Glu-N^α,N^α -di-n-pentylamide] | 34 | 6500 | – | – | – |
| O=C(O)CC[C@@H](NC(=O)c1cc2ccccc2[nH]1)C(=O)Nc1ccccc1-c1ccccc1 [Example 38, N-(2'-Indolylcarbonyl)-R-Glu-N^α -(2'-biphenylamide)] | 900 | 7100 | – | – | – |
| CCCCCN(CCCCC)C(=O)[C@@H](CC(=O)OCc1ccccc1)NC(=O)c1cc2ccccc2[nH]1 [Example 18] | 820 | 2900 | – | – | – |
| CCCCCN(CCCCC)C(=O)[C@@H](CCC(=O)OCc1ccccc1)NC(=O)c1cc2ccccc2[nH]1 [Example 3, N-(2'-Indolylcarbonyl)-(γ-benzyl ester)-R-Glu-di-n-pentylamide] | 240 | 3500 | – | – | – |
| CCCCCN(CCCCC)C(=O)[C@@H](CC(=O)O)NC(=O)c1ccc2ccccc2n1 [Example 21, N-(2'-Quinolylcarbonyl)-R-Asp-N^α,N^α -di-n-pentylamide] | 210 | 6600 | – | – | – |
| CCCCCN(CCCCC)C(=O)[C@@H](CCC(=O)O)NC(=O)c1ccc2ccccc2n1 [Example 6, N-(2,-Quinolylcarbonyl)-R-Glu-N^α,N^α -di-n-pentylamide] | 62 | 4200 | – | – | – |

The next lines start with the values.

| IC50 (Type-A CCK receptor) [nM] | IC50 (Type-B CCK receptor) [nM] | IC50, [^125 I]-BH-CCK, Type-B CCK Receptor (Type-B CCK receptor; [1]) | IC50 (Type-A CCK receptor; guinea pig pancreatic membranes, 37° C., 30 min, IC50 from Hill analysis) [nM] | IC50 (Type-B CCK receptor; [1]) [nM] | SMILES |
| --- | --- | --- | --- | --- | --- |
| 100 | ≤ 10000 | – | – | – | COC(=O)[C@@H](NC(=O)[C@@H](CCC(=O)O)NC(=O)c1cc(O)c2cccc(O)c2n1)c1ccccc1 [Example 93, Methyl N-(4',8'-Dihydroxyquinolyl-2-carbonyl)-R-Glutamyl-S-phenylglycinate] |
| 110 | > 10000 | – | – | – | CCOC(=O)CN(CC(=O)OCC)C(=O)[C@@H](CCC(=O)O)NC(=O)c1cnc2ccccc2c1 [Example 107, N-(3,-Quinolylcarbonyl)-R-Glutamyl-bis(carboethoxymethyl)amide] |
| 44 | > 10000 | – | – | – | CCOC(=O)CN(Cc1ccccc1)C(=O)[C@@H](CCC(=O)O)NC(=O)c1cnc2ccccc2c1 [Example 83, Ethyl N-(3'-Quinolylcarbonyl)-R-Glutamyl(N-benzyl)glycinate] |
| – | – | – | 56 | 620 | CCOC(=O)CN(CC(=O)OCC)C(=O)[C@@H](CCC(=O)O)NC(=O)c1cc(O)c2cccc(O)c2n1 [Example 109, N-(4',8'-Dihydroxyquinolyl-2-carbonyl)-R-Glutamyl-bis(carboethoxymethyl)amide] |
| 68 | > 10000 | – | – | – | COC(=O)[C@@H](NC(=O)[C@@H](CCC(=O)O)NC(=O)c1cnc2ccccc2c1)c1ccccc1 [Example 91, Methyl N-(3,-Quinolylcarbonyl)-R-Glutamyl-S-phenylglycinate] |
| 93 | ~10000 | – | – | – | CCOC(=O)CN(CC(=O)OCC)C(=O)[C@@H](CCC(=O)OCc1ccccc1)NC(=O)c1cnc2ccccc2c1 [Example 106, N-(3'-Quinolylcarbonyl)-(γ-Benzyl ester)-R-Glutamyl-bis(carboethoxymethyl)amide] |
| 100 | < 10000 | – | – | – | CCOC(=O)CN(Cc1ccccc1)C(=O)[C@@H](CCC(=O)O)NC(=O)c1cc(O)c2cccc(O)c2n1 [Example 85, Ethyl N-(4',8'-Dihydroxyquinolyl-2-carbonyl)-R-Glutamyl (N-benzyl)glycinate] |
| 140 | > 10000 | – | – | – | COC(=O)[C@@H](NC(=O)[C@@H](CCC(=O)O)NC(=O)c1ccc2ccccc2c1)c1ccccc1 [Example 89, Methyl N-(2 '-Naphthoyl)-R-Glutamyl-S-phenylglycinate] |
| 28 | 620 | – | – | – | CCOC(=O)CN(Cc1ccccc1)C(=O)[C@@H](CCC(=O)OCc1ccccc1)NC(=O)c1cc(O)c2cccc(O)c2n1 [Example 84] |
